Experimental findings from PubChem BioAssay (NCI) are described below.

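96-well plates; 48 h exposure; 5 concentrations. Endpoints by linear interpolation between flanking doses. Not reached: highest tested concentration assigned. The concentration for full growth arrest is given as TGI.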 A value given as a limit tells only on which side of the number the result lay.

Some test systems named below: HL-60(TB) leukemia; HOP-92 NSCLC; A498 renal; SNB-75 CNS; RXF 393 renal; MDA-MB-435; OVCAR-5 ovarian; U251 CNS; UO-31 renal; SF-539 CNS; SK-MEL-28 melanoma; PC-3 prostate; MOLT-4 leukemia; LOX IMVI melanoma; NCI-H522 lung; NCI-H226 lung; SNB-19 CNS.
Holding throughout (test): NCI-60 cell line screen, 48 h

As for `C=CC(=O)NCCC(=O)OCn1cc(F)c(=O)[nH]c1=O`, the TGI in the assay on HL-60(TB) leukemia is greater than 100 µM; with HOP-92 NSCLC it was greater than 100 µM; in the assay with A498 renal it was greater than 100 µM; in the assay on SNB-75 CNS, greater than 100 µM; in the assay on RXF 393 renal, 94.6 µM; in the assay on MDA-MB-435 it was greater than 100 µM. In addition, the TGI in the assay on OVCAR-5 ovarian, in the assay on U251 CNS, in the assay on UO-31 renal, with SF-539 CNS, in the assay with SK-MEL-28 melanoma and in the assay on PC-3 prostate was greater than 100 µM each time. Besides, the TGI in the assay on MOLT-4 leukemia, with LOX IMVI melanoma, in the assay with NCI-H522 lung, with NCI-H226 lung and with SNB-19 CNS was greater than 100 µM throughout.

As for `COC(=O)c1c(O)c(C#N)c2[nH]c3ccccc3n2c1=O`, the TGI in the assay with HL-60(TB) leukemia, with HOP-92 NSCLC, in the assay with A498 renal, with SNB-75 CNS, with RXF 393 renal and with MDA-MB-435 was greater than 100 µM throughout. The TGI in the assay on OVCAR-5 ovarian, in the assay with U251 CNS, in the assay on UO-31 renal, in the assay on SF-539 CNS, in the assay with PC-3 prostate and in the assay on MOLT-4 leukemia was greater than 100 µM each time. The TGI with NCI-H522 lung, with NCI-H226 lung and in the assay with SNB-19 CNS was greater than 100 µM throughout.

Take `CC[C@@H]1/C=C/C=C/C[C@H](C)[C@@H](O)[C@@H](C)C(=O)[C@H](C)[C@@H](O)[C@H](C)C(=O)[C@H](C)[C@@H](O)[C@H](C)/C=C/C(=O)O[C@H]2[C@@H](C)[C@@H](CC1)O[C@@]1(CC[C@@H](C)[C@@H](CC(C)O)O1)[C@@H]2C` (stereo partly specified): the TGI was 7.27 µM with HL-60(TB) leukemia; greater than 20 µM in the assay on HOP-92 NSCLC; 11 µM in the assay with A498 renal; greater than 7.9 µM in the assay on SNB-75 CNS; 9.44 µM in the assay with RXF 393 renal; greater than 18.3 µM with MDA-MB-435. Also, the TGI in the assay with OVCAR-5 ovarian was 15.4 µM; in the assay on U251 CNS, greater than 25 µM; in the assay on SF-539 CNS it was 24.6 µM; in the assay on SK-MEL-28 melanoma, greater than 25 µM; in the assay with PC-3 prostate, 12.3 µM; in the assay with MOLT-4 leukemia it was 7.65 µM. For the same compound, the figures for the TGI in the assay on LOX IMVI melanoma, with NCI-H522 lung and in the assay on SNB-19 CNS were greater than 25 µM, 11.4 µM and greater than 25 µM, respectively.

As for `O=C1CSCC(=O)Nc2ccccc2N1`, the TGI in the assay on HL-60(TB) leukemia, in the assay on HOP-92 NSCLC, with A498 renal, in the assay on RXF 393 renal, with MDA-MB-435 and in the assay with OVCAR-5 ovarian was greater than 100 µM throughout. Further, the TGI in the assay with U251 CNS, in the assay on UO-31 renal, in the assay on SF-539 CNS, in the assay on SK-MEL-28 melanoma, with PC-3 prostate and with MOLT-4 leukemia was greater than 100 µM in each case. The TGI in the assay with LOX IMVI melanoma, in the assay with NCI-H522 lung, in the assay on NCI-H226 lung and with SNB-19 CNS was greater than 100 µM throughout.

For the compound `O=c1[nH]c(=S)[nH]cc1CN1CCOCC1`, the TGI with HL-60(TB) leukemia, in the assay with HOP-92 NSCLC, in the assay on A498 renal, in the assay with SNB-75 CNS, in the assay with RXF 393 renal and in the assay with MDA-MB-435 was greater than 100 µM throughout. The TGI in the assay on OVCAR-5 ovarian, with U251 CNS, with UO-31 renal, in the assay on SF-539 CNS, in the assay on SK-MEL-28 melanoma and in the assay on PC-3 prostate was greater than 100 µM in each case. Moreover, the TGI with MOLT-4 leukemia, in the assay on LOX IMVI melanoma, in the assay with NCI-H522 lung and with SNB-19 CNS was greater than 100 µM each time.

Take `Cc1ccc(S(=O)(=O)NNC(=O)Nc2cccc(C(F)(F)F)c2)cc1`: the TGI in the assay with HL-60(TB) leukemia was greater than 100 µM; in the assay with HOP-92 NSCLC it was greater than 100 µM; with A498 renal, greater than 100 µM; with SNB-75 CNS, 53.7 µM; in the assay with RXF 393 renal, greater than 100 µM; in the assay with MDA-MB-435 it was greater than 100 µM. Further, the TGI in the assay on OVCAR-5 ovarian, in the assay with U251 CNS, with UO-31 renal, with SF-539 CNS, with SK-MEL-28 melanoma and with PC-3 prostate was greater than 100 µM in each case. The TGI in the assay on MOLT-4 leukemia, with NCI-H522 lung, with NCI-H226 lung and in the assay on SNB-19 CNS was greater than 100 µM each time.

Regarding `CSC(=S)CC(O)[C@@H]1CC2c3ccccc3C1c1ccccc12` (stereo partly specified), the TGI in the assay with HL-60(TB) leukemia came to 7.96 µM; in the assay with HOP-92 NSCLC it was 38.8 µM; in the assay on A498 renal it was 37.3 µM; in the assay on RXF 393 renal, 7.54 µM; in the assay with MDA-MB-435, 26 µM; with OVCAR-5 ovarian it was 33.4 µM. For the same compound, the TGI was 13 µM in the assay with U251 CNS; 25.6 µM in the assay on UO-31 renal; 37.8 µM with SF-539 CNS; 48.5 µM with SK-MEL-28 melanoma; 48.6 µM with PC-3 prostate; 8.24 µM in the assay on MOLT-4 leukemia. The TGI with LOX IMVI melanoma amounted to 54.6 µM; in the assay with NCI-H522 lung it was 10.9 µM; in the assay on NCI-H226 lung, 79.1 µM; with SNB-19 CNS it was 26.7 µM.

On to `Cc1nc2ccc(F)cc2c2c1CCS2`, for which the TGI was 47.6 µM in the assay on HL-60(TB) leukemia; greater than 100 µM with HOP-92 NSCLC; greater than 100 µM in the assay on A498 renal; greater than 100 µM in the assay with SNB-75 CNS; 73.9 µM in the assay with RXF 393 renal; greater than 100 µM in the assay with MDA-MB-435. The TGI in the assay on U251 CNS, in the assay with UO-31 renal, in the assay with SF-539 CNS, with SK-MEL-28 melanoma, with PC-3 prostate and with MOLT-4 leukemia was greater than 100 µM in each case. The TGI with LOX IMVI melanoma, in the assay with NCI-H522 lung and in the assay on SNB-19 CNS was greater than 100 µM throughout.
